# Measured values: patent US7160894B2, “Tricyclic compound” (Asahi Kasei Pharma Corporation, priority 2003, dated 2007)
# Tests used:
# [1] = test system: phosphorylated myosin regulatory light chain in neutrophils; assay: Action on amount of phosphorylated myosin regulatory light chain in the cells (Test Example 1); assay type: cell-based; settings: Neutrophil, 5 min; human neutrophils, reaction at 25° C. for 5 minutes; read-out: concentration at which the phosphorylation of myosin regulatory light chain is inhibited (IC50)
# Method: A volume of 50 to 100 ml of peripheral blood collected from healthy volunteers was centrifuged by using Mono-Poly separator solution (Dainippon Pharmaceutical) to prepare a neutrophil containing fraction. The neutrophils were washed with PBS(−) and resuspended in Hanks' Balanced Salt Solution (HBSS+, Gibco) to prepare a cell suspension (8×10^6/ml). The cell suspension was diluted to 5×10^6/ml, introduced into Eppendorf tubes in a volume of 0.4 ml each, then 0.1 ml each of solutions of a test compound at various concentrations were added to the suspension and allowed to react at 25° C. for 5 minutes. After the reaction, 0.1 ml of trichloroacetic acid solution was added to each reaction, the reaction mixture was gently shaken and centrifuged at 12,000 rpm (4° C., 5 minutes), and the supernatant was removed. Subsequently, 3 μl of 1 M Tris solution was added to the residue, the mixture was further mixed with 50 μl of extraction buffer (8 M urea, 0.02% 2-mercaptoethanol, 0.002% bromophenol blue) and left stand at room temperature for 1 hour. Then, the reaction mixture was loaded on a spin column (0.45 μm, Millipore) to remove the insoluble solids and a sample buffer for SDS polyacrylamide gel electrophoresis (25 mM, Tris-HCl pH 6.8, 2.5% 2-mercaptoethanol, 2% sodium dodecylsulfate, 5% sucrose, 0.002% bromophenol blue as final concentrations) was added, and 10 μl of each sample was subjected to electrophoresis.
# The gel after the electrophoresis was blotted on a nitrocellulose membrane (BioRad), blocked with 5% skim milk, and reacted successively with antibodies pLC1 (Sakurada K. et al, Am. J. Physiol., 274, C1563–C1572 (1998)), which specifically recognize the phosphorylated myosin regulatory light chain, and donkey anti-mouse IgG (Chemicon) conjugated with horseradish peroxidase. The band of the phosphorylated myosin regulatory light chain was detected on a film by using ECL Plus Kit (Amersham Pharmacia Biotech). This band was subjected to quantification using a densitometer. By using this value, the inhibitory ratio (%) for phosphorylation of the myosin regulatory light chain was calculated by using the following equation. Phosphorylation inhibition ratio (%)=1−(Band intensity of phosphorylated myosin regulatory light chain with addition of the test compound/Band intensity of phosphorylated myosin regulatory light chain without addition of the test compound)×100
# Further, the phosphorylation inhibition ratio was calculated with changing the concentrations of the test compound, and a compound concentration providing an inhibition ratio of 50% was obtained as IC50.
# intraocular pressure = assay: Intraocular pressure reducing action (Test Example 4); assay type: in vivo, Japanese white rabbit; settings: rabbit, 50 μl of aqueous solution dropped to the left eye
# Method: A Japanese white rabbit having a body weight of about 2 kg was placed in a positioner and naturalized for one week before the experiment. An ophthalmologic local anesthesant (Benoxil) was administered to the left eye, and then intraocular pressure was measured by using a tonometer (Classic 30, Solan). The initial value of the intraocular pressure was measured, then 50 μl of an aqueous solution of a test compound was dropped to the left eye at various concentrations, and the intraocular pressure was measured with passage of time.
# neutrophils = assay: Neutrophil migration inhibitory action, Boyden Chamber, FMLP (Test Example 6); assay type: cell-based; settings: 0.5 h, human neutrophils, FMLP 1 μM, 37° C., 30 minutes, read-out: concentration at which the migration of neutrophils is inhibited (IC50)
# Method: Neutrophils were isolated from 50 to 100 ml of peripheral blood collected from healthy human donors by the method described in Test Example 1 to obtain a cell suspension (8×10^6/ml). Subsequently, solutions of a test compound at various concentrations were introduced into wells of a 96-well plate in a volume of 125 μl per well, the cell suspension of an equivalent volume was added to it and the plate was preincubated at room temperature for 5 minutes. During the preincubation, FMLP (1 μM, Sigma) solution was added to the lower chamber to set Boyden Chamber, the preincubated cell suspension was added to the upper chamber in a volume of 200 μl per well, and the cells were allowed to migrate at 37° C. under 5% carbon dioxide for 30 minutes. The filter after the migration was collected, and the non-migrated cells adhered to the surface that faced the upper chamber were carefully wiped off. Then, the migrated cells on the back surface were stained with DifQuick dye solution (International Reagents), washed with water and dried, and then absorbance was measured at 595 nm. The inhibition ratio against migration (%) of a test compound was calculated by using the following equation: Migration inhibition ratio (%)=(1−Absorbance of the group with addition of test compound/Absorbance of the group without addition of test compound)×100
# Further, the migration inhibitory ratio was calculated with changing the test compound concentration, and a compound concentration providing an inhibition ratio of 50% was obtained as IC50. The compounds of the present invention obtained in Examples 1, 11, 12, 13, 14, 15, 16, 18, 19, 20, 21, 22, 24, 31, 41, 42, 47, 52, 53, 54, 55, 56, 57, 58, 59, 60, 62, 63, 64, 65, 66, 67, 68, 72, 73, 74, 75, 76, 77, 78, 79, 80, 81, 82, 83, 84, 87, 88, 89, 90, and 91 inhibited the migration of neutrophils at a concentration of 40 μM or less, and further, the compounds of Examples 1, 11, 12, 13, 14, 15, 19, 21, 22, 24, 31, and 41 inhibited the migration of neutrophils at a concentration of 10 μM or less. Further, trans-benzyl-[4-(2,3-dihydro-1,5-diazaphenalen-1-yl)cyclohexyl]amine inhibited the migration of neutrophils at a concentration of 40 μM or less.
# [2] = test system: cerebral hippocampal neurons; assay: Neurite outgrowth action (Test Example 5); assay type: cell-based, Sprague-Dawley rats; settings: rat hippocampal neurons, 24 hours after addition
# Method: From 18 day-old Sprague-Dawley rats, cerebral hippocampal neurons were prepared according to the method of Neuman et al. (Neuman, H. R. et al., J. Neurosci., 22, pp. 854–862, 2002). The prepared neurons were cultured for 24 hours according to the method of Tanaka et al. (Tanaka, H. et al., J. Cell Biol., 158 (2), pp. 321–329, 2002), then the medium was exchanged with fresh medium, and test medicaments of various concentrations or equivalent amounts of vehicle were added. Twenty-four hours after the addition of the medicaments, neurite length of each neuron was measured for the medicament-added group and the no-addition group, and compared. The neurite length was evaluated according to the method of Neuman et al. (Neuman, H. R. et al., J. Neurosci., 22, pp. 854–862, 2002).
# [3] = test system: thoracic aorta constricted with phenylephrine; assay: Vasoconstriction inhibitory action (Test Example 2); design: species or system Rats (Wistar); settings: test compound 1 μM; rat thoracic aorta constricted with phenylephrine 1 μM
# From the text: Rats (Wistar, 11-week old) were bleeded to death and laparotomized to take out the thoracic aorta. That aorta was cut into a ring of a length of about 3 mm in a conventional manner (Asano, T., et al., J. Pharmacol. Exp. Ther., 241, pp. 1033–1040 (1987)) and hung in 10-ml organ bath filled with Krebs-Hensright nutrient solution bubbled with a mixed gas of 95% O2 and 5% CO2. One end of the blood vessel was connected to an isometric transducer (FD Pickup TB-912T, Nihon Kohden) and applied with 2.5 g of resting tension, and constriction and relaxation reactions of the aorta were recorded.
# The aorta was constricted with phenylephrine (1 μM, Sigma) and then added with a test compound (1 μM), and the vasoconstriction inhibitory action thereof was observed. The vasoconstriction inhibitory actions of the test compounds were calculated as relaxation ratios, which were based on the vasoconstriction with phenylephrine observed immediately before the addition of the test compounds taken as 100%.
# [4] = test system: lipopolysaccharide-induced pulmonary inflammation; assay: Pulmonary inflammation suppressing action, LPS-induced (Test Example 8); assay type: in vivo, BALB/c female mice; settings: mice, LPS inhalation, test compound by inhalation over 10 minutes, 3 hours after administration
# From the text: According to Gonzales de Moraes, V L., et al., Br. J. Pharmacol., 123, pp. 631–6, 1998, suppressing action on pulmonary inflammation was studied. BALB/c female mice (7-week old) were used for the test, as the compound administration group and positive control group, each consisting of 7 mice, as well as the negative control group consisting of 5 mice. For induction of inflammation, a 0.03% physiological saline solution of a lipopolysaccharide (LPS, a mixture derived from Escherichia coli O55 and B5 strains, Sigma) was used. A test compound was dissolved in physiological saline to prepare solutions of various concentrations. The test animals were first inhaled with the aforementioned lipopolysaccharide solution for 10 minutes by using a pressurization type nebulizer (PARI-IS2) to induce inflammation. Then, 1 minute after the completion of the inhalation of the lipopolysaccharide solution, the animals were administered with a solution of test compound at various concentrations over 10 minutes by inhalation using the aforementioned nebulizer. The mice of the positive control group were administered with the same volume of physiological saline instead of the test compound solution over 10 minutes by inhalation. Three hours after the administration of the test compound, pulmonary cavities of the test animals were washed with physiological saline, and the total infiltrated leucocyte (WBC) number was counted.
SMILES,IC50 [1] [µM],IC50 (neutrophils) [µM],intraocular pressure reducing action (intraocular pressure),neurite outgrowth (neurite length) [2],vasoconstriction inhibitory action (relaxation ratio) [3],"pulmonary inflammation, total infiltrated leucocyte (WBC) number [4]"
"FC1CNCCC1N1CCc2cncc3cccc1c23 (stereo not shown) [Example 54, 1-(3-fluoropiperidin-4-yl)-2,3-dihydro-1H-1,5-diazaphenalene]",≤ 40,≤ 40,significant intraocular pressure reducing action,,,
CC(=O)NCCN1CCC(N2CCc3cncc4cccc2c34)CC1 [Example 42],≤ 40,≤ 40,significant intraocular pressure reducing action,,,
Cl.O=C(O)CCN1CCC(N2CCc3cncc4cccc2c34)CC1 [Example 16],,,significant intraocular pressure reducing action,significant neurite outgrowth axis extension,significant vasoconstriction inhibitory action,
COCCN1CCC(N2CCc3cncc4cccc2c34)CC1.Cl [Example 19],,,significant intraocular pressure reducing action,significant neurite outgrowth axis extension,significant vasoconstriction inhibitory action,significantly improved the pathological condition
CN[C@H]1CC[C@H](N2CCc3cncc4cccc2c34)CC1.Cl [Example 41],,,significant intraocular pressure reducing action,significant neurite outgrowth axis extension,significant vasoconstriction inhibitory action,significantly improved the pathological condition
"CN(C)[C@H]1CC[C@H](N2CCc3cncc4cccc2c34)CC1 [Example 53, trans-[4-(2,3-dihydro-1,5-diazaphenalen-1-yl)cyclohexyl]dimethylamine]",≤ 40,≤ 40,significant intraocular pressure reducing action,,,

# Second part, led by results:
IC50 [1] [µM],IC50 (neutrophils) [µM],SMILES,intraocular pressure reducing action (intraocular pressure),neurite outgrowth (neurite length) [2],vasoconstriction inhibitory action (relaxation ratio) [3],"pulmonary inflammation, total infiltrated leucocyte (WBC) number [4]"
≤ 40,≤ 40,"CC(=O)N(C)CCN1CCC(N2CCc3cncc4cccc2c34)CC1 [Example 59, N-{2-[4-(2,3-dihydro-1,5-diazaphenalen-1-yl)piperidin-1-yl]ethyl}-N-methylacetamide]",significant intraocular pressure reducing action,,,
≤ 40,≤ 40,"c1ccc(CN[C@H]2CC[C@H](N3CCc4cncc5cccc3c45)CC2)cc1 [trans-benzyl-[4-(2,3-dihydro-1,5-diazaphenalen-1-yl)cyclohexyl]amine]",,,,
≤ 40,≤ 40,"O=C1CCN1CCN1CCC(N2CCc3cncc4cccc2c34)CC1 [Example 60, 1-{2-[4-(2,3-dihydro-1,5-diazaphenalen-1-yl)piperidin-1-yl]ethyl}azetidin-2-one]",significant intraocular pressure reducing action,,,
